Measurements from patent publication US7622582B2, “Derivatives of 1-phenyl-benzofuro[3,2]pyridin-2(1H)-one” (Tibotec BVBA, priority 2004, dated 2009).
pEC50: −log10 of the molar value.

system: HIV; experiment: Cellular assay: anti-viral activity in HIV-infected MT4 cells (MTT cell viability); type: cell-based; details: Human immunodeficiency virus 1, 120 h, five days incubation, MTT readout, negative logarithm of EC50 (protection of 50% of cells from cytopathogenic effect)
Experimental: The compounds of the present invention were examined for anti-viral activity in a cellular assay, which was performed according to the following procedure.
HIV- or mock-infected MT4 cells were incubated for five days in the presence of various concentrations of the inhibitor. At the end of the incubation period, the replicating virus in the control cultures has killed all HIV-infected cells in the absence of any inhibitor. Cell viability was determined by measuring the concentration of MTT, a yellow, water soluble tetrazolium dye that is converted to a purple, water insoluble formazan in the mitochondria of living cells only. Upon solubilization of the resulting formazan crystals with isopropanol, the absorbance of the solution was monitored at 540 nm. The values correlate directly to the number of living cells remaining in the culture at the completion of the five day incubation. The inhibitory activity of the compound was monitored on the virus-infected cells and was expressed as EC50 and EC90. These values represent the amount of the compound required to protect 50% and 90%, respectively, of the cells from the cytopathogenic effect of the virus. The toxicity of the compound was measured on the mock-infected cells and was expressed as CC50, which represents the concentration of compound required to inhibit the growth of the cells by 50%. The selectivity index (SI) (ratio CC50/EC50) is an indication of the selectivity of the anti-HIV activity of the inhibitor. Wherever results are reported as e.g. pEC50 or pCC50 values, the result is expressed as the negative logarithm of the result expressed as EC50 or CC50 respectively.
Table 2 lists the pEC50 values obtained in this test for a number of compounds of the invention.

pEC50 | Structure (SMILES)
5.60 | CC(=O)c1ccc(-n2c(=O)c(C)c(C#N)c3oc4ccccc4c32)cc1 [Compound 1, 1-(4-Acetyl-phenyl)-3-methyl-2-oxo-1,2-dihydro-benzo[4,5]furo[3,2-b]pyridine-4-carbonitrile]
5.80 | Cc1c(C#N)c(=O)n(-c2ccc([N+](=O)[O-])cc2)c2c1oc1cccnc12 [Compound 3, 4-Methyl-1-(4-nitrophenyl)-2-oxo-1,2-dihydro-furo[3,2-b;4,5-b′]dipyridine-3-carbonitrile]
6.40 | COc1ccc2c(c1)oc1c(C)c(C#N)c(=O)n(-c3ccc([N+](=O)[O-])cc3)c12 [Compound 5, 7-Methoxy-4-methyl-1-(4-nitrophenyl)-2-oxo-1,2-dihydro-benzo[4,5]furo[3,2-b]-pyridine-3-carbonitrile]
5.50 | Cc1c(C#N)c(=O)n(-c2ccc([N+](=O)[O-])cc2)c2c1oc1cc(O)ccc12 [Compound 6, 7-Hydroxy-4-methyl-1-(4-nitrophenyl)-2-oxo-1,2-dihydro-benzo[4,5]furo[3,2-b]-pyridine-3-carbonitrile]
